PMC12608329, “Inhibition of α-Glucosidase Activity and Islet Amyloid PolyPeptide Fibril Formation by Rubus ulmifolius Fruit Extract: A Potential Therapeutic Approach for Type 2 Diabetes Mellitus” (Plants, 2025)
Blank lines part the entries; values can stand above or below the molecule they belong to.

Tests used:
IAPP = system: IAPP; set-up: method as in PMID 40305223; conditions: cited from earlier work
[1] = ABTS radical scavenging activity; conditions: mean ± SD, three independent assays
Experimental: [50]. A volume of 10 μL of the extract was mixed with 1 mL of ABTS+ solution previously diluted to reach an absorbance of approximately 0.70 ± 0.05 (mean ± SD). After 1 min of incubation, the absorbance was recorded at 734 nm. Trolox (6-hydroxy-2,5,7,8-tetramethylchroman-2-carboxylic acid) was employed as the reference antioxidant. Results were expressed as the effective concentration required to achieve 50% reduction of the initial absorbance (EC50).

[2] = system: human islets exposed to amylin; set-up: method as in PMID 34614009; conditions: cited from earlier work

Molecule: epigallocatechin 3-gallate
IAPP aggregation (IAPP): reduce IAPP aggregation

ABTS EC50 [1]: 3.4 ± 0.3 µg/mL
Molecule: Cc1c(C)c2c(c(C)c1O)CCC(C)(C(=O)O)O2 (centres unmarked) [Trolox, 6-hydroxy-2,5,7,8-tetramethylchroman-2-carboxylic acid]

Molecule: OC[C@H]1O[C@@H](Oc2cc3c(O)cc(O)cc3[o+]c2-c2ccc(O)c(O)c2)[C@H](O)[C@@H](O)[C@@H]1O [cyanidin 3-O-glucoside, cyanidin-3-O-glucoside]
amyloid formation in human islets exposed to amylin [2]: inhibit amyloid formation
cell viability of human islets exposed to amylin [2]: increase cell viability

Molecule: COc1cc(/C=C/C(=O)CC(=O)/C=C/c2ccc(O)c(OC)c2)ccc1O [curcumin]
IAPP aggregation (IAPP): reduce IAPP aggregation
